How the values were obtained:
Aurora B = target: T1, Aurora B (Homo sapiens, UniProt Q96GD4); assay: Aurora B enzyme inhibition (time-resolved fluorescence, histone H3 peptide); format: biochemical; conditions: 1 mM ATP
T1 construct: Active Aurora B enzyme (recombinant residues 1-344)
Outline: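 Recombinant Aurora B (residues 1-344) with GST-INCENP phosphorylated biotinylated histone H3 (1-21) peptide at 1 mM ATP in HEPES pH 7.4 with MgCl2, orthovanadate and Triton X-100 for 1 h. After EDTA stop, the phosphopeptide was detected by TR-FRET (Eu-cryptate anti-phospho-H3 / SA-APC, 665/615 nm ratio). IC50 from an exponential fit.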

Aurora A = target: T2, Aurora A (Homo sapiens, UniProt O14965); assay: Aurora A enzyme inhibition (time-resolved fluorescence, STK substrate-2); format: biochemical; conditions: 1 mM ATP
T2 sequence (O14965 1-403): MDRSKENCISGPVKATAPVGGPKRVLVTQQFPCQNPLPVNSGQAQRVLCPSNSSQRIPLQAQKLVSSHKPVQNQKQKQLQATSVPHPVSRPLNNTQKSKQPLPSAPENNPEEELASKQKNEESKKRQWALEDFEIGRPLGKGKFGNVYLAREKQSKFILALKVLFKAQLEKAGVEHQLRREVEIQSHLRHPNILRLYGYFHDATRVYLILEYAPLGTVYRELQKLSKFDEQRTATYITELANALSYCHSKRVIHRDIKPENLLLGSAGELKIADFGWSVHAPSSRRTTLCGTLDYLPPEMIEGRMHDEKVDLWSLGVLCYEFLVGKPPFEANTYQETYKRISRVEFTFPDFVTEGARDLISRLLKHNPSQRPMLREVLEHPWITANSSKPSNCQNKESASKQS
Outline: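 Active enzyme incubated 1 h with biotinylated STK substrate-2, 1 mM ATP and inhibitor in Hepes pH 7.4 with MgCl2, orthovanadate and Triton X-100. EDTA stop; phosphopeptide detected by Eu-cryptate anti-phospho-STK/SA-XL665 TR-FRET (665/615 nm ratio); IC50 by exponential fit.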

NCI-H1299 cells = assay: Induction of polyploidy in H1299; format: cell-based, Human; conditions: Homo sapiens; NCI-H1299, 48 hours; read-out: EC15 (concentration of inhibitor necessary to induce polyploidy in 15% of cells)
Outline: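 NCI-H1299 cells in RPMI 1640/10% FCS were treated with inhibitor concentrations in duplicate for 48 h at 37 C, then formalin-fixed and Hoechst-stained. Nuclear area was measured by high-content imaging, with polyploid (≥4N) defined as >750 μ^2. EC15 was derived by least-squares fit of log dose-response.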

KDR = KDR (Homo sapiens, UniProt P35968); assay: KDR HTRF in vitro kinase assay; format: biochemical; set-up: purified enzyme (His6-KDR 789-1354, MW 63 kD); His6 (N); conditions: 1 mM ATP; read-out: KDR enzyme inhibition data (Ki)
Outline: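 His6-KDR 789-1354 (7 ng/well) with 0.5 μM biotinylated peptide substrate and 1 mM ATP in HEPES pH 7.1, MgCl2/MnCl2, 60 min at room temperature. EDTA-quenched, detected by streptavidin-XL-665 plus Eu-kryptate anti-phosphotyrosine HTRF after 3 h; IC50 from 620/665 nm ratio.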

T1 sequence (Q96GD4 whole entry, the tested form may be a part): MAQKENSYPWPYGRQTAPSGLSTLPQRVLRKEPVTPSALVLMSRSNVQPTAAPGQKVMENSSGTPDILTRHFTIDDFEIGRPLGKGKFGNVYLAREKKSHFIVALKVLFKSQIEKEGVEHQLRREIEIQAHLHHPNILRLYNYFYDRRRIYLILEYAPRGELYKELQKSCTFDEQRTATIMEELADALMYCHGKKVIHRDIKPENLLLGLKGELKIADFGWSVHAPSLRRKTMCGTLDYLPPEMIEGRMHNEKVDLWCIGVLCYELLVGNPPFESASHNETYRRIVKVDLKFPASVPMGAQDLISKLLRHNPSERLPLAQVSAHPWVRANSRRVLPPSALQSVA
T1 sequence (Q9NQS7 826-918 partner limits assumed): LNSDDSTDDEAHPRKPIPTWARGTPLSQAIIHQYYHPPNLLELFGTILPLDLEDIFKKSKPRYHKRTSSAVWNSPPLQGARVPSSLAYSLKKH
KDR, sequence (P35968 789-1354): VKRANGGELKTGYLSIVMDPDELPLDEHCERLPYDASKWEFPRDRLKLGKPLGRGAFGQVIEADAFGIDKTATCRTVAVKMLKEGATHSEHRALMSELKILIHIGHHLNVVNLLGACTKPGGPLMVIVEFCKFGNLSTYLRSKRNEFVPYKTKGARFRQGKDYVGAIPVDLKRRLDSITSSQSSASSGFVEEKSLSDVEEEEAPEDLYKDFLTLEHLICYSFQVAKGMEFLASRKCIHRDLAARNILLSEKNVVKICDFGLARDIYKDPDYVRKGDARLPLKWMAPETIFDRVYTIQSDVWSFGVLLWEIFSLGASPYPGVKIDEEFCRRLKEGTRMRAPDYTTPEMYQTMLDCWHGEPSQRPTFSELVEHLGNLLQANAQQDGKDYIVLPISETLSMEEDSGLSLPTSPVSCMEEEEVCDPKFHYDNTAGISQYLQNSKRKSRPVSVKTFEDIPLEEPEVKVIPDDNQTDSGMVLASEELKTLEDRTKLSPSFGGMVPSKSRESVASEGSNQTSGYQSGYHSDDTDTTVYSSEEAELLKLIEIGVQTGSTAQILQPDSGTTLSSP

Ki (Aurora B)	Ki (Aurora A)	Ki (KDR)	SMILES	EC15 (NCI-H1299 cells)
< 100 nM	< 100 nM	< 100 nM	NC(=O)[C@@H]1[C@H](Nc2nc(Nc3cnn(C[C@@H](O)CO)c3)ncc2Cl)[C@H]2C=C[C@@H]1C2 [Example 130, (1S,2S,3R,4R)-3-{[5-chloro-2-({1-[(2R)-2,3-dihydroxypropyl]-1H-pyrazol-4-yl}amino)pyrimidin-4-yl]amino}bicyclo[2.2.1]hept-5-ene-2-carboxamide]	< 100 nM
< 100 nM	< 100 nM	< 100 nM	NC(=O)[C@@H]1[C@H](Nc2nc(Nc3cnn(C[C@H](O)CO)c3)ncc2Br)[C@H]2C=C[C@@H]1C2 [Example 131, (1S,2S,3R,4R)-3-{[5-bromo-2-({1-[(2S)-2,3-dihydroxypropyl]-1H-pyrazol-4-yl}amino)pyrimidin-4-yl]amino}bicyclo[2.2.1]hept-5-ene-2-carboxamide]	< 100 nM
< 100 nM	< 100 nM	< 100 nM	Cn1cc(Nc2ncc(Br)c(Nc3ccccc3C3(O)CCC3)n2)cn1 [Example 132, 1-[2-({5-bromo-2-[(1-methyl-1H-pyrazol-4-yl)amino]pyrimidin-4-yl}amino)phenyl]cyclobutanol]	100 to 1000 nM
< 100 nM	< 100 nM	< 100 nM	Cc1nn(C)cc1Nc1ncc(Cl)c(N[C@H]2[C@@H](C(N)=O)[C@@H]3C=C[C@H]2C3)n1 [Example 134, (1S,2S,3R,4R)-3-({5-chloro-2-[(1,3-dimethyl-1H-pyrazol-4-yl)amino]pyrimidin-4-yl}amino)bicyclo[2.2.1]hept-5-ene-2-carboxamide]	< 100 nM
< 100 nM	< 100 nM	< 100 nM	Cc1nn(C)cc1Nc1ncc(Br)c(N[C@H]2[C@@H](C(N)=O)[C@@H]3C=C[C@H]2C3)n1 [Example 135, (1S,2S,3R,4R)-3-({5-bromo-2-[(1,3-dimethyl-1H-pyrazol-4-yl)amino]pyrimidin-4-yl}amino)bicyclo[2.2.1]hept-5-ene-2-carboxamide]	< 100 nM
< 100 nM	< 100 nM	< 100 nM	Cn1cc(Nc2ncc([N+](=O)[O-])c(N[C@H]3[C@@H](C(N)=O)[C@@H]4C=C[C@H]3C4)n2)cn1 [Example 139, (1S,2S,3R,4R)-3-({2-[(1-methyl-1H-pyrazol-4-yl)amino]-5-nitropyrimidin-4-yl}amino)bicyclo[2.2.1]hept-5-ene-2-carboxamide]	< 100 nM
< 100 nM	< 100 nM	< 100 nM	CCn1cc(Nc2ncc([N+](=O)[O-])c(N[C@H]3[C@@H](C(N)=O)[C@@H]4C=C[C@H]3C4)n2)cn1 [Example 140, (1S,2S,3R,4R)-3-({2-[(1-ethyl-1H-pyrazol-4-yl)amino]-5-nitropyrimidin-4-yl}amino)bicyclo[2.2.1]hept-5-ene-2-carboxamide]	< 100 nM
< 100 nM	< 100 nM	< 100 nM	NC(=O)[C@@H]1[C@H](Nc2nc(Nc3cnn(CCc4ccccc4)c3)ncc2Cl)[C@H]2C=C[C@@H]1C2 [Example 143, (1S,2S,3R,4R)-3-[(5-chloro-2-{[1-(2-phenylethyl)-1H-pyrazol-4-yl]amino}pyrimidin-4-yl)amino]bicyclo[2.2.1]hept-5-ene-2-carboxamide]	< 100 nM
< 100 nM	< 100 nM	< 100 nM	NC(=O)[C@@H]1[C@H](Nc2nc(Nc3cnn(Cc4ccccc4)c3)ncc2Cl)[C@H]2C=C[C@@H]1C2 [Example 144, (1S,2S,3R,4R)-3-({2-[(1-benzyl-1H-pyrazol-4-yl)amino]-5-chloropyrimidin-4-yl}amino)bicyclo[2.2.1]hept-5-ene-2-carboxamide]	< 100 nM

Continued, compound first:

SMILES	Ki (Aurora B)	Ki (Aurora A)	Ki (KDR)	EC15 (NCI-H1299 cells)
NC(=O)[C@@H]1[C@H](Nc2nc(Nc3cnn([C@@H]4CCOC4)c3)ncc2Br)[C@H]2C=C[C@@H]1C2 [Example 116, (1S,2S,3R,4R)-3-{[5-bromo-2-({1-[(3R)-tetrahydrofuran-3-yl]-1H-pyrazol-4-yl}amino)pyrimidin-4-yl]amino}bicyclo[2.2.1]hept-5-ene-2-carboxamide]	< 100 nM	< 100 nM	< 100 nM	< 100 nM
NC(=O)[C@@H]1[C@H](Nc2nc(Nc3cnn([C@H]4CCOC4)c3)ncc2Br)[C@H]2C=C[C@@H]1C2 [Example 117, (1S,2S,3R,4R)-3-{[5-bromo-2-({1-[(3S)-tetrahydrofuran-3-yl]-1H-pyrazol-4-yl}amino)pyrimidin-4-yl]amino}bicyclo[2.2.1]hept-5-ene-2-carboxamide]	< 100 nM	< 100 nM	< 100 nM	< 100 nM
NC(=O)[C@@H]1[C@H](Nc2nc(Nc3cnn(C4CCC4)c3)ncc2Cl)[C@H]2C=C[C@@H]1C2 [Example 118, (1S,2S,3R,4R)-3-({5-chloro-2-[(1-cyclobutyl-1H-pyrazol-4-yl)amino]pyrimidin-4-yl}amino)bicyclo[2.2.1]hept-5-ene-2-carboxamide]	< 100 nM	< 100 nM	< 100 nM	< 100 nM
CS(=O)(=O)CCn1cc(Nc2ncc(Cl)c(N[C@H]3[C@@H](C(N)=O)[C@@H]4C=C[C@H]3C4)n2)cn1 [Example 119, (1S,2S,3R,4R)-3-{[5-chloro-2-({1-[2-(methylsulfonyl)ethyl]-1H-pyrazol-4-yl}amino)pyrimidin-4-yl]amino}bicyclo[2.2.1]hept-5-ene-2-carboxamide]	< 100 nM	< 100 nM	< 100 nM	< 100 nM
CS(=O)(=O)CCn1cc(Nc2ncc(Br)c(N[C@H]3[C@@H](C(N)=O)[C@@H]4C=C[C@H]3C4)n2)cn1 [Example 122, (1S,2S,3R,4R)-3-{[5-bromo-2-({1-[2-(methylsulfonyl)ethyl]-1H-pyrazol-4-yl}amino)pyrimidin-4-yl]amino}bicyclo[2.2.1]hept-5-ene-2-carboxamide]	< 100 nM	< 100 nM	< 100 nM	< 100 nM
NC(=O)[C@@H]1[C@H](Nc2nc(Nc3cnn(C4CCC4)c3)ncc2Br)[C@H]2C=C[C@@H]1C2 [Example 123, (1S,2S,3R,4R)-3-({5-bromo-2-[(1-cyclobutyl-1H-pyrazol-4-yl)amino]pyrimidin-4-yl}amino)bicyclo[2.2.1]hept-5-ene-2-carboxamide]	< 100 nM	< 100 nM	< 100 nM	< 100 nM
NC(=O)[C@@H]1[C@H](Nc2nc(Nc3cnn(C[C@H](O)CO)c3)ncc2Cl)[C@H]2C=C[C@@H]1C2 [Example 124, (1S,2S,3R,4R)-3-{[5-chloro-2-({1-[(2S)-2,3-dihydroxypropyl]-1H-pyrazol-4-yl}amino)pyrimidin-4-yl]amino}bicyclo[2.2.1]hept-5-ene-2-carboxamide]	< 100 nM	< 100 nM	< 100 nM	< 100 nM
NC(=O)[C@@H]1[C@H](Nc2nc(Nc3cnn(CC4CCO4)c3)ncc2Cl)[C@H]2C=C[C@@H]1C2 (stereo partly drawn) [Example 129, (1S,2S,3R,4R)-3-[(5-chloro-2-{[1-(oxetan-2-ylmethyl)-1H-pyrazol-4-yl]amino}pyrimidin-4-yl)amino]bicyclo[2.2.1]hept-5-ene-2-carboxamide]	< 100 nM	< 100 nM	< 100 nM	< 100 nM
